Where two headings read alike, the source gives them in different places.
Columns and labels:
physchem = experiment: physchem
Excerpt: This study aims to compare the influence of amino acid structure on the physicochemical properties of NSAID salts with the isopropyl ester of amino acids.

[1] = pKa / pKB by potentiometric acid-base titration and formation constant log(KS); conditions: calculated from pKA of acid and pKB of base
Procedure: Determination of formation constant pKs
Zabrze, Poland). For the measurement of pKA acids, 0.1 M NaOH was used. In order to
ester hydrochloride, HCl aqueous solution, was added in an amount that allowed reach-
After that, an acid-base titration was made out by adding dropwise 5 mM

Escherichia coli = experiment: Disc diffusion antimicrobial susceptibility test, Escherichia coli; assay type: cell-based; set-up: key to Inhibition diameter: -: no growth of the organism
Procedure: (§1) The plates were incubated for 24 h at 37 °C.

[2] = tested on: Staphylococcus epidermidis; experiment: Disc diffusion antimicrobial susceptibility test, Staphylococcus epidermidis; assay type: cell-based; set-up: key to Inhibition diameter: -: no growth of the organism
Procedure: as §1

Micrococcus Luteus = experiment: Disc diffusion antimicrobial susceptibility test, Micrococcus luteus; assay type: cell-based; set-up: key to Inhibition diameter: -: no growth of the organism
[3] = DTG; cited from earlier work
[4] = Thermogravimetric analysis (thermal stability)
Procedure: The thermal stabilities of the obtained NSAIDs isopropyl ester amino acid salts were investigated. […] The beginning of thermal degradation was evaluated based on the value of onset of the TG curve, which occurs in the first phase of the process. […]
Thermogravimetric analysis (TG)
Thermogravimetric analysis was carried out using Netzsch Proteus Thermal Analy- […]
Samples of 5–8 mg were loaded in Al2O3 […]
ment was performed in an air atmosphere (25 cm3min−1) with nitrogen flow (10 cm3min−1) […]
Differential scanning calorimetry (DSC)
Phase transformation temperatures were determined on a PerkinElmer DSC-7 (Rot-gau, Germany). The samples of 3–5 mg were loaded on the aluminum pan with a crimped lid. Measurements were carried out in a nitrogen atmosphere (20 cm3 min-1). The rate of heating/cooling was 5°C min-1. […]
tained for 30 min inside the furnace, then cooled to 0°C to condition the sample and the crucible. After that, heating was conducted to the specified temperature, followed by cool-ing. Unless otherwise stated, two complete cycles of heating and cooling were performed.
The specified maximum temperature was individual for each compound, determined from TG analysis, and it was at least 10°C lower than the onset decomposition tempera-ture. Temperatures reported from DSC data are curve peaks, the melting points being endothermic upon heating and crystallization point being exothermic upon cooling. Lead, indium, tin, and zinc were used as standards to calibrate the temperature. Indium was used for enthalpy measurement calibration. […]

[5] = solution transferred to disc 25 mg cm^−3
[6] = solution transferred to disc 50 mg cm^−3
[7] = solution transferred to disc 100 mg cm^−3
[8] = solution transferred to disc 200 mg cm^−3
[9] = solution transferred to disc 400 mg cm^−3
[10] = solution transferred to disc 600 mg cm^−3
[11] = solution transferred to disc 1000 mg cm^−3
[12] = solution transferred to disc 800 mg cm^−3

Log(KS) formation constant [1] | SMILES | Inhibition diameter (Escherichia coli; [5]) | Inhibition diameter (Escherichia coli; [6]) | Inhibition diameter (Escherichia coli; [7]) | Inhibition diameter (Escherichia coli; [8]) | Inhibition diameter (Escherichia coli; [9]) | Inhibition diameter (Escherichia coli; [10]) | Inhibition diameter (Escherichia coli; [11]) | Inhibition diameter [2, 5] | Inhibition diameter [2, 6] | Inhibition diameter [2, 7] | Inhibition diameter [2, 8] | Inhibition diameter [2, 9] | Inhibition diameter [2, 10] [mm] | Inhibition diameter [2, 12] [mm] | Inhibition diameter [2, 11] [mm] | Inhibition diameter (Micrococcus Luteus; [5]) | Inhibition diameter (Micrococcus Luteus; [6]) [mm] | Inhibition diameter (Micrococcus Luteus; [7]) [mm] | Inhibition diameter (Micrococcus Luteus; [8]) [mm] | other results
5.78 | CC(C)Cc1ccc(C(C)C(=O)O)cc1.CCC(C)C(N)C(=O)OC(C)C (mixture of isomers) [[L-IleOiPr][IBU]] | - | - | - | 6.3 ± 0.1 mm | 6.4 ± 0.3 mm | 7.1 ± 0.2 mm | 7.8 ± 0.3 mm | 7.5 ± 0.2 mm | 9.5 ± 0.4 mm | 14.4 ± 0.2 mm | 15.4 ± 0.4 mm | 17.0 ± 0.2 mm | 17.5 ± 0.1 | 18.0 ± 0.1 | 19.3 ± 0.1 | 7.2 ± 0.2 mm | 7.6 ± 0.1 | 8.6 ± 0.1 | 9.4 ± 0.2 | Solubility in Phosphate Buffer pH = 5.4 (physchem): 1.161 ± 0.002 g dm^−3; Solubility in Phosphate Buffer pH = 5.4, as active substance (physchem): 0.631 ± 0.002 gAS dm^−3; Solubility in Phosphate Buffer pH = 7.4 (physchem): 4.038 ± 0.021 g dm^−3; Solubility in Phosphate Buffer pH = 7.4, as active substance (physchem): 2.195 ± 0.021 gAS dm^−3; Inhibition diameter (Micrococcus Luteus; [9]): 10.7 ± 0.1 mm; Inhibition diameter (Micrococcus Luteus; [10]): 11.2 ± 0.1 mm; Inhibition diameter (Micrococcus Luteus; [12]): 11.6 ± 0.1 mm; Inhibition diameter (Micrococcus Luteus; [11]): 12.3 ± 0.2 mm; TDTGmax, maximum decomposition temperature [3]: 221.9 [50] °C
5.53 | CC(C)Cc1ccc(C(C)C(=O)O)cc1.CSCCC(N)C(=O)OC(C)C (mixture of isomers) [[L-MetOiPr][IBU]] | - | 6.1 ± 0.1 mm | 6.2 ± 0.1 mm | 6.5 ± 0.2 mm | 7.1 ± 0.3 mm | 7.6 ± 0.2 mm | 8.1 ± 0.1 mm | - | - | 8.3 ± 0.1 mm | 13.6 ± 0.2 mm | 14.7 ± 0.2 mm | 15.4 ± 0.2 | 17.0 ± 0.2 | 17.7 ± 0.3 | - | 7.3 ± 0.2 | 8.5 ± 0.2 | 10.4 ± 0.1 | Solubility in Phosphate Buffer pH = 5.4 (physchem): 0.932 ± 0.011 g dm^−3; Solubility in Phosphate Buffer pH = 5.4, as active substance (physchem): 0.483 ± 0.011 gAS dm^−3; Solubility in Phosphate Buffer pH = 7.4 (physchem): 3.376 ± 0.001 g dm^−3; Solubility in Phosphate Buffer pH = 7.4, as active substance (physchem): 1.752 ± 0.001 gAS dm^−3; Inhibition diameter (Micrococcus Luteus; [9]): 12.6 ± 0.1 mm; Inhibition diameter (Micrococcus Luteus; [10]): 14.1 ± 0.1 mm; Inhibition diameter (Micrococcus Luteus; [12]): 14.3 ± 0.1 mm; Inhibition diameter (Micrococcus Luteus; [11]): 14.6 ± 0.3 mm; TDTGmax, maximum decomposition temperature [3]: 209.9 [50] °C

SMILES | Log(KS) formation constant [1] | Inhibition diameter (Escherichia coli; [5]) | Inhibition diameter (Escherichia coli; [6]) | Inhibition diameter (Escherichia coli; [7]) | Inhibition diameter (Escherichia coli; [8]) | Inhibition diameter (Escherichia coli; [9]) | Inhibition diameter (Escherichia coli; [10]) | Inhibition diameter (Escherichia coli; [11]) | Inhibition diameter [2, 5] | Inhibition diameter [2, 6] | Inhibition diameter [2, 7] | Inhibition diameter [2, 8] | Inhibition diameter [2, 9] | Inhibition diameter [2, 10] [mm] | Inhibition diameter [2, 12] [mm] | Inhibition diameter [2, 11] [mm] | Inhibition diameter (Micrococcus Luteus; [5]) | Inhibition diameter (Micrococcus Luteus; [6]) [mm] | Inhibition diameter (Micrococcus Luteus; [7]) [mm] | Inhibition diameter (Micrococcus Luteus; [8]) [mm] | other results
CC[C@H](C)[C@H](N)C(=O)OC(C)C.COc1ccc2cc([C@H](C)C(=O)O)ccc2c1 [[L-IleOiPr][NAP], L-isoleucine isopropyl ester naproxenate] | 6.11 | - | - | - | - | - | - | - | - | - | - | - | - | 12.0 ± 0.3 | 12.4 ± 0.2 | 13.5 ± 0.3 | 6.4 ± 0.1 mm | 6.7 ± 0.1 | 7.0 ± 0.1 | 7.3 ± 0.1 | TTGonset, the onset of the thermal degradation [4]: 127.0 °C; TDTGmax, maximum decomposition temperature ([4]; DTG, air atmosphere, 10 °C min−1): 287.4 °C; Inhibition diameter (Micrococcus Luteus; [9]): 7.5 ± 0.2 mm; Inhibition diameter (Micrococcus Luteus; [10]): 8.1 ± 0.6 mm; Inhibition diameter (Micrococcus Luteus; [12]): 8.7 ± 0.1 mm; Inhibition diameter (Micrococcus Luteus; [11]): 9.5 ± 0.1 mm

— publication PMC9693575, “Isopropyl Amino Acid Esters Ionic Liquids as Vehicles for Non-Steroidal Anti-Inflammatory Drugs in Potential Topical Drug Delivery Systems with Antimicrobial Activity” (International Journal of Molecular Sciences, 2022)
